Assay results published in paper PMC10294832, “Investigation of Naphthyl–Polyamine Conjugates as Antimicrobials and Antibiotic Enhancers” (Antibiotics, 2023).
Several values for one entry are separate records, joined by “and”; a condition that tells them apart may be missing. Equal entries are not always repeated.

Key:
[1] = tested on: S. aureus (ATCC 25,923 or ATCC 29213); test: Antimicrobial MIC, S. aureus; format: cell-based, Staphylococcus aureus; conditions: mean (n = 3)
Description: (§1) The susceptibility of bacterial strains S. aureus (ATCC 25,923 or 29213), E. coli (ATCC 25922), and P. aeruginosa (ATCC 27853) to antibiotics and compounds was determined according to previously reported protocols. Additional antimicrobial evaluation against MRSA (ATCC 43300), Klebsiella pneumoniae (ATCC 700603), Acinetobacter baumannii (ATCC 19606), Candida albicans (ATCC 90028), and Cryptococcus neoformans (ATCC 208821) was undertaken at the Community for Open Antimicrobial Drug Discovery at The University of Queensland (Australia) according to their standard protocols as reported previously.

C. albicans (ATCC 90028) = test: Antifungal MIC, C. albicans; format: cell-based; conditions: Candida albicans, ATCC90028, mean (n = 2)
Description: as §1

human red blood cells = test: Hemolytic assay; format: cell-based; conditions: concentration at 10% hemolytic activity on human red blood cells; mean (n = 2)
Description: Hemolysis assays were conducted using the protocols previously reported.

Cytotoxicity assay = format: cell-based, human; conditions: human, HEK293 human embryonic kidney cells, concentration at 50% cytotoxicity on HEK293 cells; mean (n = 2)
Description: Cytotoxicity assays were conducted using the protocols previously reported.

[2] = tested on: P. aeruginosa (ATCC 27853); test: Enhancement of doxycycline activity; format: cell-based, Pseudomonas aeruginosa; conditions: for Dox/P.a: concentration required to restore doxycycline activity (combination MIC): doxycycline fixed at 4.5 µM (2 µg/mL), P. aeruginosa (ATCC 27853); for Dox/P.a fold change: ratio between intrinsic MIC of test compound and combination MIC, doxycycline 4.5 µM, P. aeruginosa
[3] = tested on: P. aeruginosa (PAO1 or ATCC 27853); test: Antimicrobial MIC, P. aeruginosa; format: cell-based; conditions: Pseudomonas aeruginosa; P. aeruginosa (PAO1 or ATCC 27853); mean (n = 3); read-out: MIC P. a
Description: as §1

[4] = tested on: K. pneumoniae (ATCC 700603); test: Antimicrobial MIC, K. pneumoniae; format: cell-based; conditions: Klebsiella pneumoniae, ATCC700603, mean (n = 2)
Description: as §1

MRSA (ATCC 43300) = test: Antimicrobial MIC, MRSA; format: cell-based, methicillin-resistant Staphylococcus aureus; conditions: Staphylococcus aureus, MRSA (ATCC 43300); mean (n = 2); read-out: MIC MRSA
Description: as §1

[5] = tested on: C. neoformans (ATCC 208821); test: Antifungal MIC, C. neoformans; format: cell-based, Cryptococcus neoformans; conditions: Cryptococcus neoformans, ATCC208821, C. neoformans (ATCC 208821); mean (n = 2)
Description: as §1

E. coli (ATCC 25922) [6] = test: Antimicrobial MIC, E. coli; format: cell-based, Escherichia coli; conditions: mean (n = 2)
Description: as §1

[7] = tested on: A. baumannii (ATCC 19606); test: Antimicrobial MIC, A. baumannii; format: cell-based, Acinetobacter baumannii; conditions: Acinetobacter baumannii, ATCC19606, A. baumannii (ATCC 19606); mean (n = 2)
Description: as §1

E. coli (ATCC 25922) [8] = test: Enhancement of erythromycin activity; format: cell-based, Escherichia coli; conditions: for Eryth/E.c: concentration required to restore erythromycin activity (combination MIC): erythromycin fixed at 10.9 µM (8 µg/mL), E. coli (ATCC 25922); for Eryth/E.c fold change: ratio between intrinsic MIC of test compound and combination MIC, erythromycin 10.9 µM, E. coli
Description: Restoring enhancer concentrations were determined using previously reported protocols.

[9] = Escherichia coli, ATCC25922, E. coli (ATCC 25922)

Structure (SMILES) | MIC ([1]; Staphylococcus aureus) [µM] | MIC (C. albicans (ATCC 90028)) [µM] | Hemolysis HC10 (human red blood cells) [µM] | IC50 (Cytotoxicity assay) [µM] | Dox/P.a: concentration required to restore doxycycline activity (combination MIC) [2] | Dox/P.a fold change [2] [fold] | MIC [3] [µM] | MIC [4] [µM] | MIC (MRSA (ATCC 43300)) [µM] | MIC [5] [µM] | MIC (E. coli (ATCC 25922) [6]; [9]) [µM] | MIC [7] [µM] | Eryth/E.c: concentration required to restore erythromycin activity (combination MIC) (E. coli (ATCC 25922) [8]) [µM] | Eryth/E.c fold change (E. coli (ATCC 25922) [8]) [fold] | MIC [1] [µM] | MIC (E. coli (ATCC 25922) [6]; E. coli (ATCC 25922)) [µM]
O=C(CCC(=O)Nc1cccc2ccccc12)NCCCNCCCCCCNCCCNC(=O)CCC(=O)Nc1cccc2ccccc12.O=C(O)C(F)(F)F.O=C(O)C(F)(F)F [Compound 18b, N^1,N^6-Bis(3-(4-(naphthalen-1-ylamino)-4-oxobutanamido)propyl)hexane-1,6-diaminium 2,2,2-trifluoroacetate] | > 200 | > 35.2 | >35.2 | > 35.2 | 100 µM | > 2 | > 200 | > 35.2 | > 35.2 | > 35.2 | > 200 | > 35.2 | 200 | 1 |  | 
O=C(CCC(=O)Nc1cccc2ccccc12)NCCCNCCCCCCCNCCCNC(=O)CCC(=O)Nc1cccc2ccccc12.O=C(O)C(F)(F)F.O=C(O)C(F)(F)F [Compound 18c, N^1,N^7-Bis(3-(4-(naphthalen-1-ylamino)-4-oxobutanamido)propyl)heptane-1,7-diaminium 2,2,2-trifluoroacetate] | > 200 | > 34.7 | >34.7 | > 34.7 | 12.5 µM | 16 | 200 | > 34.7 | > 34.7 | > 34.7 | 200 | > 34.7 | 200 | 1 |  | 
O=C(CCC(=O)Nc1cccc2ccccc12)NCCCNCCCCCCCCNCCCNC(=O)CCC(=O)Nc1cccc2ccccc12.O=C(O)C(F)(F)F.O=C(O)C(F)(F)F [Compound 18d, N^1,N^8-Bis(3-(4-(naphthalen-1-ylamino)-4-oxobutanamido)propyl)octane-1,8-diaminium 2,2,2-trifluoroacetate] | 107 | > 34.2 | >34.2 | > 34.2 | > 107 µM | 1 | > 107 | > 34.2 | > 34.2 | > 34.2 | > 107 | > 34.2 | 107 | 1 |  | 
O=C(CCC(=O)Nc1cccc2ccccc12)NCCCNCCCCCCCCCCNCCCNC(=O)CCC(=O)Nc1cccc2ccccc12.O=C(O)C(F)(F)F.O=C(O)C(F)(F)F [Compound 18e, N^1,N^10-Bis(3-(4-(naphthalen-1-ylamino)-4-oxobutanamido)propyl)decane-1,10-diaminium 2,2,2-trifluoroacetate] | 104 | > 33.2 | >33.2 | > 33.2 | 207 µM | 2.5 | 518 | > 33.2 | 33.2 | 33.2 | 518 | > 33.2 | 51.8 | 10 |  | 
O=C(CCC(=O)Nc1cccc2ccccc12)NCCCNCCCCCCCCCCCCNCCCNC(=O)CCC(=O)Nc1cccc2ccccc12.O=C(O)C(F)(F)F.O=C(O)C(F)(F)F [Compound 18f, N^1,N^12-Bis(3-(4-(Naphthalen-1-ylamino)-4-oxobutanamido)propyl)dodecane-1,12-diaminium 2,2,2-trifluoroacetate] | 3.12 | > 32 | >32.2 | > 32.2 | 50.3 µM | > 2 | > 100 | > 32 | ≤ 0.25 | ≤ 0.25 | 6.3 to 12.5 | > 32 | 6.29 | 2 | 3.15 | 12.5
O=C(NCCCNCCCCCCNCCCNC(=O)c1ccc2ccccc2c1)c1ccc2ccccc2c1.O=C(O)C(F)(F)F.O=C(O)C(F)(F)F [Compound 19b, N^1,N^6-Bis(3-(2-naphthamido)propyl)hexane-1,6-diaminium 2,2,2-trifluoroacetate] | 65.2 | > 41.7 | >41.7 | > 41.7 | 65.2 µM | > 2 | > 130 | > 41.7 | 41.7 | 20.9 | 130 | > 41.7 | 65.2 | 2 |  | 
O=C(NCCCNCCCCCCCNCCCNC(=O)c1ccc2ccccc2c1)c1ccc2ccccc2c1.O=C(O)C(F)(F)F.O=C(O)C(F)(F)F [Compound 19c, N^1,N^7-Bis(3-(2-naphthamido)propyl)heptane-1,7-diaminium 2,2,2-trifluoroacetate] | 16 | > 41 | >41.0 | 20.5 | 4.0 µM and 4.00 µM | 8 | 32 | > 41 | ≤ 0.32 | ≤ 0.32 | 16 | > 41 | 4.0 | 4 |  | 
O=C(NCCCNCCCCCCCCNCCCNC(=O)c1ccc2ccccc2c1)c1ccc2ccccc2c1.O=C(O)C(F)(F)F.O=C(O)C(F)(F)F [Compound 19d, N^1,N^8-Bis(3-(2-naphthamido)propyl)octane-1,8-diaminium 2,2,2-trifluoroacetate] | 7.9 | > 40.3 | >40.3 | > 40.3 | 15.7 µM | 8 | 126 | > 40.3 | 40.3 | 40.3 | 126 | > 40.3 | 15.7 | 8 |  | 
